According to patent EP0908457B1, “3-(1,2-benzisothiazol- and isoxazol-5-Y1)-2,4(1H,3H)-pyrimidinedione or thione and 3-(1,2-benzisothiazol- and isoxazol-5-y1)-4(3H)-pyrimidinone or thione herbicidal agents” (BASF AKTIENGESELLSCHAFT, priority 1997, dated 1999):

Columns and labels:
[1] = test system: Monochoria vaginalis, Presl.; experiment: Preemergence weed control under flooded paddy conditions, MOOVA (Monochoria); format: in vivo; details: flooded paddy; for herbicidal effect rating, MOOVA: preemergence, rated three to four weeks after treatment; for MOOVA: preemergence weeds, herbicidal effect rating 0-9, three to four weeks after treatment
[2] = test system: Echinochloa oryzoides (Ard.) Fritsch.; experiment: Preemergence weed control under flooded paddy conditions, ECHORC (Watergrass (Calif.)); format: in vivo; details: flooded paddy; for herbicidal effect rating, ECHORC: preemergence, rated three to four weeks after treatment; for ECHORC: preemergence weeds, herbicidal effect rating 0-9, three to four weeks after treatment
[3] = test system: Sagittaria pygmaea, L.; experiment: Preemergence weed control under flooded paddy conditions, SAGPY (Arrowhead (Pygmaea)); format: in vivo; details: flooded paddy; for herbicidal effect rating, SAGPY: preemergence, rated three to four weeks after treatment; for SAGPY: preemergence weeds, herbicidal effect rating 0-9, three to four weeks after treatment
[4] = test system: Cyperus iria; experiment: Preemergence weed control under flooded paddy conditions, CYPIR (Rice Flatsedge); format: in vivo; details: flooded paddy; for herbicidal effect rating, CYPIR: preemergence, rated three to four weeks after treatment; for CYPIR: preemergence weeds, herbicidal effect rating 0-9, three to four weeks after treatment
[5] = test system: Oryza sativa, (L.) Tebonnet; experiment: Rice tolerance to post-transplant applications under flooded paddy conditions (Example 187), ORYSAT (Rice, Tebonnet); details: for herbicidal effect rating ORYSAT: rated three to four weeks after treatment; for ORYSAT: herbicidal effect rating 0-9, three to four weeks after treatment; on herbicidal effect rating ORYSAT: meaning of each grade not given here
[6] = test system: Cyperus serotinus, Rottb.; experiment: Preemergence weed control under flooded paddy conditions, CYPSE (Flatsedge); format: in vivo; details: for herbicidal effect rating, CYPSE: preemergence, rated three to four weeks after treatment; for CYPSE: preemergence weeds, herbicidal effect rating 0-9, three to four weeks after treatment

Cn1c(C(F)(F)F)cc(=O)n(-c2ccc3snc(C(=O)NS(=O)(=O)c4cccs4)c3c2)c1=O [Example 391, 1,2-Benzisothiazole-3-carboxamide, 5-[3,6-dihydro-3-methyl-2,6-dioxo-4-(trifluoromethyl)-1(2H)-pyrimidinyl]-N-(2-thienylsulfonyl)-]
herbicidal effect rating, MOOVA ([1]; Rate 0.0320 kg/ha): 6.0 | herbicidal effect rating, MOOVA ([1]; Rate 0.0620 kg/ha): 9.0 | herbicidal effect rating, MOOVA ([1]; Rate 0.1250 kg/ha): 9.0 | herbicidal effect rating, MOOVA ([1]; Rate 0.2500 kg/ha): 9.0 | herbicidal effect rating, MOOVA ([1]; Rate 0.5000 kg/ha): 9.0 | herbicidal effect rating, ECHORC ([2]; Rate 0.0320 kg/ha): 0.0 | herbicidal effect rating, ECHORC ([2]; Rate 0.0620 kg/ha): 0.0 | herbicidal effect rating, ECHORC ([2]; Rate 0.1250 kg/ha): 2.0 | herbicidal effect rating, ECHORC ([2]; Rate 0.2500 kg/ha): 4.0 | herbicidal effect rating, ECHORC ([2]; Rate 0.5000 kg/ha): 6.0 | herbicidal effect rating, SAGPY ([3]; Rate 0.0320 kg/ha): 6.0 | herbicidal effect rating, SAGPY ([3]; Rate 0.0620 kg/ha): 6.0 | herbicidal effect rating, SAGPY ([3]; Rate 0.1250 kg/ha): 7.0 | herbicidal effect rating, SAGPY ([3]; Rate 0.2500 kg/ha): 7.0 | herbicidal effect rating, SAGPY ([3]; Rate 0.5000 kg/ha): 9.0 | herbicidal effect rating, CYPIR ([4]; Rate 0.0320 kg/ha): 3.0 | herbicidal effect rating, CYPIR ([4]; Rate 0.0620 kg/ha): 3.0 | herbicidal effect rating, CYPIR ([4]; Rate 0.1250 kg/ha): 4.0 | herbicidal effect rating, CYPIR ([4]; Rate 0.2500 kg/ha): 6.0 | herbicidal effect rating, CYPIR ([4]; Rate 0.5000 kg/ha): 9.0 | herbicidal effect rating ORYSAT ([5]; Rate 0.0320 kg/ha): 2.0 | herbicidal effect rating ORYSAT ([5]; Rate 0.0620 kg/ha): 2.0 | herbicidal effect rating ORYSAT ([5]; Rate 0.1250 kg/ha): 3.0 | herbicidal effect rating ORYSAT ([5]; Rate 0.2500 kg/ha): 3.0 | herbicidal effect rating ORYSAT ([5]; Rate 0.5000 kg/ha): 3.0 | herbicidal effect rating, CYPSE ([6]; Rate 0.0320 kg/ha): 0.0 | herbicidal effect rating, CYPSE ([6]; Rate 0.0620 kg/ha): 0.0 | herbicidal effect rating, CYPSE ([6]; Rate 0.1250 kg/ha): 0.0 | herbicidal effect rating, CYPSE ([6]; Rate 0.2500 kg/ha): 0.0 | herbicidal effect rating, CYPSE ([6]; Rate 0.5000 kg/ha): 3.0

Cn1c(C(F)(F)F)cc(=O)n(-c2ccc3snc(C(=O)NS(=O)(=O)Cc4ccccc4[N+](=O)[O-])c3c2)c1=O [Example 404, 1,2-Benzisothiazole-3-carboxamide, 5-[3,6-dihydro-3-methyl-2,6-dioxo-4-(trifluoromethyl)-1(2H)-pyrimidinyl]-N-[(o-nitrobenzyl)sulfonyl]-]
MOOVA ([1]; 0.0320 kg/ha): 4.0 | MOOVA ([1]; 0.0620 kg/ha): 5.0 | MOOVA ([1]; 0.1250 kg/ha): 5.0 | MOOVA ([1]; 0.2500 kg/ha): 6.0 | ECHORC ([2]; 0.0320 kg/ha): 0.0 | ECHORC ([2]; 0.0620 kg/ha): 3.0 | ECHORC ([2]; 0.1250 kg/ha): 6.0 | ECHORC ([2]; 0.2500 kg/ha): 7.0 | SAGPY ([3]; 0.0320 kg/ha): 0.0 | SAGPY ([3]; 0.0620 kg/ha): 0.0 | SAGPY ([3]; 0.1250 kg/ha): 0.0 | SAGPY ([3]; 0.2500 kg/ha): 0.0 | CYPIR ([4]; 0.0320 kg/ha): 0.0 | CYPIR ([4]; 0.0620 kg/ha): 0.0 | CYPIR ([4]; 0.1250 kg/ha): 2.0 | CYPIR ([4]; 0.2500 kg/ha): 6.0 | ORYSAT ([5]; 0.0320 kg/ha): 0.0 | ORYSAT ([5]; 0.0620 kg/ha): 0.0 | ORYSAT ([5]; 0.1250 kg/ha): 0.0 | ORYSAT ([5]; 0.2500 kg/ha): 2.0 | CYPSE ([6]; 0.0320 kg/ha): 0.0 | CYPSE ([6]; 0.0620 kg/ha): 0.0 | CYPSE ([6]; 0.1250 kg/ha): 0.0 | CYPSE ([6]; 0.2500 kg/ha): 0.0

Cn1c(C(F)(F)F)cc(=O)n(-c2ccc3snc(C(=O)NS(=O)(=O)Cc4ccc(C(C)(C)C)cc4)c3c2)c1=O [Example 405, 1,2-Benzisothiazole-3-carboxamide, N-[(p-tert-butylbenzyl)sulfonyl]-5-[3,6-dihydro-3-methyl-2,6-dioxo-4-(trifluoromethyl)-1(2H)-pyrimidinyl]-]
MOOVA ([1]; 0.0320 kg/ha): 6.0 | MOOVA ([1]; 0.0620 kg/ha): 6.0 | MOOVA ([1]; 0.1250 kg/ha): 7.0 | MOOVA ([1]; 0.2500 kg/ha): 7.0 | ECHORC ([2]; 0.0320 kg/ha): 7.0 | ECHORC ([2]; 0.0620 kg/ha): 7.0 | ECHORC ([2]; 0.1250 kg/ha): 9.0 | ECHORC ([2]; 0.2500 kg/ha): 9.0 | SAGPY ([3]; 0.0320 kg/ha): 0.0 | SAGPY ([3]; 0.0620 kg/ha): 0.0 | SAGPY ([3]; 0.1250 kg/ha): 5.0 | SAGPY ([3]; 0.2500 kg/ha): 6.0 | CYPIR ([4]; 0.0320 kg/ha): 4.0 | CYPIR ([4]; 0.0620 kg/ha): 4.0 | CYPIR ([4]; 0.1250 kg/ha): 7.0 | CYPIR ([4]; 0.2500 kg/ha): 8.0 | ORYSAT ([5]; 0.0320 kg/ha): 0.0 | ORYSAT ([5]; 0.0620 kg/ha): 0.0 | ORYSAT ([5]; 0.1250 kg/ha): 2.0 | ORYSAT ([5]; 0.2500 kg/ha): 2.0 | CYPSE ([6]; 0.0320 kg/ha): 0.0 | CYPSE ([6]; 0.0620 kg/ha): 0.0 | CYPSE ([6]; 0.1250 kg/ha): 0.0 | CYPSE ([6]; 0.2500 kg/ha): 0.0

Cn1c(C(F)(F)F)cc(=O)n(-c2ccc3snc(C(=O)NS(=O)(=O)Cc4ccc(OC(F)(F)F)cc4)c3c2)c1=O [Example 406, 1,2-Benzisothiazole-3-carboxamide, 5-[3,6-dihydro-3-methyl-2,6-dioxo-4-(trifluoromethyl)-1(2H)-pyrimidinyl]-N-{[p-(trifluoromethoxy)-benzyl]sulfonyl}-]
MOOVA ([1]; 0.0320 kg/ha): 4.0 | MOOVA ([1]; 0.0620 kg/ha): 7.0 | MOOVA ([1]; 0.1250 kg/ha): 9.0 | MOOVA ([1]; 0.2500 kg/ha): 9.0 | ECHORC ([2]; 0.0320 kg/ha): 6.0 | ECHORC ([2]; 0.0620 kg/ha): 6.0 | ECHORC ([2]; 0.1250 kg/ha): 7.0 | ECHORC ([2]; 0.2500 kg/ha): 7.0 | SAGPY ([3]; 0.0320 kg/ha): 3.0 | SAGPY ([3]; 0.0620 kg/ha): 4.0 | SAGPY ([3]; 0.1250 kg/ha): 4.0 | SAGPY ([3]; 0.2500 kg/ha): 4.0 | CYPIR ([4]; 0.0320 kg/ha): 0.0 | CYPIR ([4]; 0.0620 kg/ha): 4.0 | CYPIR ([4]; 0.1250 kg/ha): 4.0 | CYPIR ([4]; 0.2500 kg/ha): 7.0 | ORYSAT ([5]; 0.0320 kg/ha): 0.0 | ORYSAT ([5]; 0.0620 kg/ha): 0.0 | ORYSAT ([5]; 0.1250 kg/ha): 2.0 | ORYSAT ([5]; 0.2500 kg/ha): 4.0 | CYPSE ([6]; 0.0320 kg/ha): 0.0 | CYPSE ([6]; 0.0620 kg/ha): 0.0 | CYPSE ([6]; 0.1250 kg/ha): 3.0 | CYPSE ([6]; 0.2500 kg/ha): 6.0
